Like-named read-outs stand apart in the source and are kept apart here.
What was measured:
Daudi CD19 positive = test: Flow cytometry-based cytotoxicity assay of FKBP-FRB* mcCAR CD19 T-cells with AP21967; format: cell-based; settings: for EC50: Homo sapiens, Daudi, dose response 0, 1, 5, 10, 33, 100 nM
Experimental: The cytolytic activity of engineered T-cells endowed with the FKBP-FRB* mcCAR CD19 from example 2, was assessed using a flow cytometry-based cytotoxicity assay. In this assay target cells presenting the CAR target antigen (Daudi CD19 positive) are labelled with CellTrace™ CFSE or and control cells with CellTrace™ violet.
The whole cell population was recovered, washed in PBS and labeled with eFluor780 viability marker before being fixed by 2% PFA. Fixed cells were analyzed by flow cytometry to determine their viability. Flow cytometry and data analysis were performed as described in example 1.
The level of targeted cell killing also correlated with the level of CAR detection (FIG. 9).

FKBP-FRB* scCAR = target: T1, FKBP-FRB* scCAR (Homo sapiens, UniProt P62942); test: AP21967 switch-on scCAR surface detection (Fc-tagged recombinant CD123); format: cell-based; settings: FKBP-FRB* domains; FIG. 7
T1 construct: expressed in transfected cells
Excerpt: The CAR extracellular domains (alpha chain) presented in example 2 were used as template to prepare plasmid DNA encoding single chain CARs (scCARs). The CD8 alpha transmembrane domain (SEQ ID NO: 32), the intracytoplasmic signalling region of the ζ-chain of the CD3-T cell receptor (SEQ ID NO: 28) and the signalling domains from co-stimulatory 4-1BB (CD137) (SEQ ID NO:31) were used to complete the CARs. scCARs were assemble by Golden Gate cloning using round of restriction and ligation, according to standard molecular biology procedures, leading to pCLS27572 (FKBP-FRB*) (SEQ ID NO:65), pCLS27603 (FKBP) (SEQ ID NO:66), pCLS27604 (FRB*) (SEQ ID NO:67). The respective amino acid sequences encoded by these constructs are shown in SEQ ID NOs: 68 to 70.
Primary labelling for the detection of the scCARs was performed with Fc-tagged recombinant CD123 (Lake Pharma) in PBS FBS2%, EDTA 2 mM, azide 0.1% for 20 min at 4° C. followed by a two washing steps with PBS FBS2% EDTA 2 mM azide 0.1%. […] Following the extracellular labelling, the cell viability was monitored using the efluor450 or efluor780 (ebioscience) in PBS for 20 min 4° C., followed by a washing step with PBS FBS2% EDTA 2 mM azide 0.1% and fixed in PFA 2%.

MOLM13-Luc tumour cells = test: Antitumor activity of inducible CD123 CAR+ T cells with AP21967 in NOG mice injected with MOLM13-Luc; format: in vivo; settings: switch-on mcCAR-CD123 T cells IV plus AP21967 3 mg/kg/inj IP twice daily; FIG. 11
Experimental: The anti-tumor activity of human T-cells expressing a switch-on mcCAR-CD123 as described in Example 1, was assessed in NOG mice intravenously injected with MOLM13-Luc tumour cells.
To establish the MOLM13-Luc cell line, MOLM13 cells (DSMZ ACC 554) have been transduced with a lentivirus encoding the GFP and the firefly luciferase (amsbio LVP438-PBS). The GFP-positive cells have been selected with Neomycin (ref 10131-027, Gibco, Life Technologies, Saint-Aubin, France). MOLM13-Luc cells are grown in suspension at 37° C. in a humidified atmosphere (5% CO2, 95% air) into culture medium RPMI 1640 containing 2.05 mM L-glutamine (ref: BE12-702F, Lonza) supplemented with 15% fetal bovine serum (ref: 3302, Lonza, Verviers, Belgium), 100 U/mL Penicillin and 100 μg/mL Streptomycin (ref: DE17-602E, Lonza). The cells are counted in a hemocytometer and their viability is assessed by 0.25% trypan blue exclusion assay and are passed twice weekly (0.8 millions/mL) in fresh culture medium.
The day of injection to mice, frozen human T-cells transformed with the switch-on mcCAR-CD123 CAR are assessed to be within a range of 1-2.106 live cells per mL. […]
Mice were monitored daily with respect to their body weight measurements, clinical and mortality records, and treatment were recorded on Vivo Manager® database (Biosystemes, Dijon, France).

FKBP-FRB* mcCAR CD19 = target: T2, FKBP-FRB* mcCAR CD19 (Homo sapiens, UniProt P62942); test: AP21967 switch-on: surface detection and dose response, CD19 targeting engineered CAR (Fab'2 detection); format: cell-based
T2 construct: expressed in transfected cells; host or cells: T cells, mRNA electroporation

[1] = test system: FKBP/FRB-mcCAR and FRB/FKBP-mcCAR constructs; test: Rapamycin switch-on: surface detection of mcCAR with FKBP and FRB in the α-chain (flow cytometry); format: cell-based; settings: rapamycin 100 nM, 20 h vs no rapamycin
Excerpt: All constructs originated from the pCLS24707 (SEQ ID NO: 38) which encode the α-chain (SEQ ID NO: 39), β-chain (SEQ ID NO: 40) and γ-chain (SEQ ID NO: 41) of the multichain CAR (mcCAR). The sequences coding for the FRB domain (SEQ ID NO: 2) and FKBP domain (SEQ ID NO: 1) were synthetized de novo (GeneCust). The scFV, hinge-transmembrane-intracytoplasmic alpha chain domain, the FRB and the FKBP were further amplified by PCR to generate golden gate assembly compatible fragments (SEQ ID NO: 42 to 45). In addition an FRB-FKBP and an FKBP-FRB fragment were generated (SEQ ID NO: 46 to 47) using a four-EAAAR-linker (SEQ ID NO: 19) or a −GS-4x-EAAAR-linker (SEQ ID NO: 20) and standard molecular biology procedures. […]
All individual chains were amplified by PCR using oligo pairs α-chain-F/α-chain-R, β-chain-F/β-chain-R and γ-chain-F/γ-chain-R (SEQ ID NO: 56 to 61) prior to mRNA synthesis. mRNA encoding the different α-chains, β-chain, γ-chain were in vitro transcribed from the PCR product and polyadenylated using the mMessage mMachine T7 Ultra kit (Life technologies) following the manufacturer's instructions. RNAs were purified with RNeasy columns (Qiagen), eluted in cytoporation medium T and quantified by measuring absorbance at 260 nm using a Nanodrop ND-1000 spectrophotometer. […]

FKBP-FRB* mcCAR = target: T3, FKBP-FRB* mcCAR (Homo sapiens, UniProt P62942); test: Competition between AP21967 and tacrolimus, surface presentation of engineered CAR; format: cell-based; settings: AP21967 10 nM fixed, tacrolimus 0-500 nM, 20 hours
T3 construct: expressed in transfected cells; host or cells: T cells, mRNA electroporation
T3 sequence (P62942 with tags, fused parts or gaps): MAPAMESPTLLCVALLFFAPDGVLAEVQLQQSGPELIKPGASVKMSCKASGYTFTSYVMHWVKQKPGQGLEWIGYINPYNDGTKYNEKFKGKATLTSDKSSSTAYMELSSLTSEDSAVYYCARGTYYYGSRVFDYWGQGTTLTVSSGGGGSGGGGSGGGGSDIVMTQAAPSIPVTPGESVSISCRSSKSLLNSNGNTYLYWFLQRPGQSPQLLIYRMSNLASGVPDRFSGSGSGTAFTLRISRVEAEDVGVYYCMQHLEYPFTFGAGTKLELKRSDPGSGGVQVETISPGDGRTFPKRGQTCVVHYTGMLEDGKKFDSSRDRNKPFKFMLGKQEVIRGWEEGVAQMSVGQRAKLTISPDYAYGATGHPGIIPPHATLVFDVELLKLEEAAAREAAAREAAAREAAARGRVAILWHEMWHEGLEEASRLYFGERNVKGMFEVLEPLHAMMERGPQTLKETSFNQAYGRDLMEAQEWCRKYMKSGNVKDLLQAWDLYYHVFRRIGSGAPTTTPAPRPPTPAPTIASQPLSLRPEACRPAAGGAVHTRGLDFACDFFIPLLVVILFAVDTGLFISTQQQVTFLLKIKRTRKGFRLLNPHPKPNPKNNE
T3 sequence (Q01362 with tags, fused parts or gaps partner limits assumed): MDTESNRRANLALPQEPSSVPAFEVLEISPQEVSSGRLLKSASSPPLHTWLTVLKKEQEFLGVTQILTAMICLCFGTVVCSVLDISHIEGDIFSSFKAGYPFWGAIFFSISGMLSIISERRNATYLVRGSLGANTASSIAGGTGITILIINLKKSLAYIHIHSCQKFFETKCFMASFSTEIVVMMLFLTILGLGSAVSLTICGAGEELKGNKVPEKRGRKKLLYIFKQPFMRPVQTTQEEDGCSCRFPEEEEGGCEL
T3 sequence (P30273 with tags, fused parts or gaps partner limits assumed): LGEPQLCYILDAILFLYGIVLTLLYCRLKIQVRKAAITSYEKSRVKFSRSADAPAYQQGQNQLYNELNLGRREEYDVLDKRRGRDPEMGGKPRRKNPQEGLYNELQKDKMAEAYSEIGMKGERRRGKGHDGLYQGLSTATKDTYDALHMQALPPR

T2 sequence (Q01362 with tags, fused parts or gaps partner limits assumed): as the sequence (Q01362 with tags, fused parts or gaps partner limits assumed) above
T2 sequence (P30273 with tags, fused parts or gaps partner limits assumed): as the sequence (P30273 with tags, fused parts or gaps partner limits assumed) above
T1 sequence (P62942 with tags, fused parts or gaps): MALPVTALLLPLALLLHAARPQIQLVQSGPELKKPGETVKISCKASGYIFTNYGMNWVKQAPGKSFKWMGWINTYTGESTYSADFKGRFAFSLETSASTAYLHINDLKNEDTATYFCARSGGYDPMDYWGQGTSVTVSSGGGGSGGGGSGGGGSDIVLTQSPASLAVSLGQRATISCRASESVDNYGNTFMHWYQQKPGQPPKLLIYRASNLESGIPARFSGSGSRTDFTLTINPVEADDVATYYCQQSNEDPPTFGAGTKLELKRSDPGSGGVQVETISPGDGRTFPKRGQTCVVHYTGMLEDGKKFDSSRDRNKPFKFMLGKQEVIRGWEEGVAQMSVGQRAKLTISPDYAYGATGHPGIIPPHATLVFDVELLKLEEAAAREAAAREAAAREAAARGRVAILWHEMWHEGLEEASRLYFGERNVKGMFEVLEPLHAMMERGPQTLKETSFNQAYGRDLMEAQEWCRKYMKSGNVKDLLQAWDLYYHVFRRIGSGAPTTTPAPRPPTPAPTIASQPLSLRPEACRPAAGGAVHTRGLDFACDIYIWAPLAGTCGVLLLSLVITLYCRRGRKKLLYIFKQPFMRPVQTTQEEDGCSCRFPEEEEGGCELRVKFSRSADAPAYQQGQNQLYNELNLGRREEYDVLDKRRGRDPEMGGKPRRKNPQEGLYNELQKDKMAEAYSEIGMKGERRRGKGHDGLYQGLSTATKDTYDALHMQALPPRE

CO[C@H]1[C@@H](O)[C@H](C)C[C@H](C)/C=C/C=C/C=C(\C)[C@@H](c2c[nH]c3c(C)cccc23)C[C@@H]2CC[C@@H](C)[C@@](O)(O2)C(=O)C(=O)N2CCCC[C@H]2C(=O)O[C@H]([C@H](C)C[C@@H]2CC[C@@H](O)[C@H](OC)C2)C[C@H](O)[C@H](C)/C=C(\C)[C@H]1O [AP21967]
level of target cell killing versus AP21967 dose (Daudi CD19 positive; 0, 1, 5, 10, 33, 100 nM, FIG. 5B): correlated | cytolytic activity of CAR T cells in presence of AP21967 (Daudi CD19 positive; AP21967 100 nM vs ethanol, E/T 20:1, 5 h, FIG. 5A): improved switched-on cytolytic activity | EC50 (Daudi CD19 positive; FIG. 5B, read-out: EC50 of cytolytic capacity (approximate)): ~10 nM | EC50 (Daudi CD19 positive; FIG. 5B, read-out: EC50 of cytolytic capacity (value in parentheses)): 12.7 nM | surface exposition of scCAR in presence of AP21967 (FKBP-FRB* scCAR): improved surface exposition | survival of the mice (MOLM13-Luc tumour cells): increased the survival | surface exposition of mcCAR in presence of AP21967 (FKBP-FRB* mcCAR CD19; FKBP-FRB* domains in α-chain, FIG. 4): improved surface exposition | concentration of maximum signal induction (FKBP-FRB* mcCAR CD19; dose response, surface detection): 100 nM

CO[C@H]1C[C@@H]2CC[C@@H](C)[C@@](O)(O2)C(=O)C(=O)N2CCCC[C@H]2C(=O)O[C@H]([C@H](C)C[C@@H]2CC[C@@H](O)[C@H](OC)C2)CC(=O)[C@H](C)/C=C(\C)[C@@H](O)[C@@H](OC)C(=O)[C@H](C)C[C@H](C)/C=C/C=C/C=C/1C [rapamycin]
improvement of surface detection considering the MFI [1]: up to 15 fold | improvement of surface detection considering the percentage of positive cell [1]: ≤ 3 fold

C=CC[C@@H]1/C=C(\C)C[C@H](C)C[C@H](OC)[C@H]2O[C@@](O)(C(=O)C(=O)N3CCCC[C@H]3C(=O)O[C@H](/C(C)=C/[C@@H]3CC[C@@H](O)[C@H](OC)C3)[C@H](C)[C@@H](O)CC1=O)[C@H](C)C[C@@H]2OC [tacrolimus]
surface presentation/detection of the engineered CAR with increasing tacrolimus (FKBP-FRB* mcCAR): decreased surface detection | surface presentation/detection of the engineered CAR with increasing tacrolimus (FKBP-FRB* mcCAR; listed as Tacrolimus): possibility to tune the surface presentation
